According to ChEMBL document CHEMBL5390277, “Development of N-Terminally Modified Variants of the CXCR4-Antagonistic Peptide EPI-X4 for Enhanced Plasma Stability” (J Med Chem, 2023):
Square brackets hold non-standard residues; d marks the D form. Peptide text beside a SMILES is read from it.

Tests used:
SUP-T1 = test: Inhibition of cell migration in human SUP-T1 cells assessed as inhibition of CXCL12 mediated cell migration incubated for 4 hrs in presence of chemoattractant, CXCL12 by Transwell based CellTiter-Glo-chemotaxis assay; assay type: functional
[1] = test system: Human immunodeficiency virus 1; test: Antiviral activity against HIV-1 NL4-3 infected in human TZM-bl cells assessed as inhibition of viral replication preincubated for 15 mins followed by viral infection and measured after 4320 mins by beta-gal screening assay; assay type: functional, organism-based; details: Human immunodeficiency virus 1, NL4-3, TZM
[2] = target: T1, C-X-C chemokine receptor type 4 (Homo sapiens, UniProt P61073); test: Displacement of 12G5 mAb from CXCR4 in human SUP-T1 cells incubated for 2 hrs by flow cytometry analysis; assay type: cell-based
T1 sequence (P61073 whole entry): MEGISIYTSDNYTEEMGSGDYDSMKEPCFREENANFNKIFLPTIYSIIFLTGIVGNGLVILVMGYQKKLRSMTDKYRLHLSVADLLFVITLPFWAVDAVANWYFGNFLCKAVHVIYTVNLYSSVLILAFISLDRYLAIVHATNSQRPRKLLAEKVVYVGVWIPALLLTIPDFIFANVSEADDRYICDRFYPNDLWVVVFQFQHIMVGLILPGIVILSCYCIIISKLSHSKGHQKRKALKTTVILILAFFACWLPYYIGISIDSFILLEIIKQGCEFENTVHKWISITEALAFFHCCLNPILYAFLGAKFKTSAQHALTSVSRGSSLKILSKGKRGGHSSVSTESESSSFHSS

[3] = target: T1, C-X-C chemokine receptor type 4; test: Antagonist activity at CXCR4 in human SUP-T1 cells assessed as inhibition of CXCL12-induced ERK phosphorylation preincubated with 15 mins followed by CXCL12 stimulation and measured after 12 mins by flow cytometry analysis; assay type: functional, cell-based
[4] = Toxicity in Zebrafish embryo incubated for 24 hrs by microscopic analysis; design: species or system Danio rerio; details: in vivo
[5] = target: T1, C-X-C chemokine receptor type 4; test: Antagonist activity at CXCR4 (unknown origin) expressed in human HEK293T cells co-expressing SmBiT-beta-arrestin2 preincubated with compound for 10 mins followed by CXCL12 stimulation and measured for 120 mins by beta-arrestin2 recruitment based NanoBiT assay; assay type: functional, cell-based

Row | SMILES | inhibition (SUP-T1) | IC50 [1] | IC50 [2] | IC50 [3] | Activity [4] | IC50 [5]
1 | c1cc(CN2CCCNCCNCCCNCC2)ccc1CN1CCCNCCNCCCNCC1 | Dose-Dependent Effect | 30 nM |  |  |  | 
2 | CC(C)C[C@H](NC(=O)[C@@H](N)C(C)C)C(=O)N[C@@H](CCCNC(=N)N)C(=O)N[C@@H](Cc1c[nH]c2ccccc12)C(=O)N[C@@H](CO)C(=O)N[C@@H](CCCNC(=N)N)C(=O)N[C@@H](CCCCN)C(=O)N[C@@H](CC(C)C)C(=O)N1CCC[C@H]1C(=O)N[C@@H](CS)C(=O)N[C@H](C(=O)N[C@@H](CO)C(=O)O)C(C)C |  | 214 nM | 298 nM | 4330 nM |  | 
3 | CC(C)C[C@H](NC(=O)[C@@H](NC(=O)[C@@H]1CCCN1C(=O)[C@@H](NC(=O)[C@H](CO)NC(=O)[C@@H](NC(=O)[C@H](CCC(N)=O)NC(=O)[C@@H]1CCCN1C(=O)[C@@H](NC(=O)[C@H](CCCCN)NC(=O)[C@H](CCCCN)NC(=O)[C@@H](NC(=O)[C@H](Cc1ccc(O)cc1)NC(=O)[C@H](CCCNC(=N)N)NC(=O)[C@@H](NC(=O)[C@@H](N)CC(C)C)C(C)C)[C@@H](C)O)C(C)C)C(C)C)[C@@H](C)O)[C@@H](C)O)C(=O)O (H-LVRYTKKVPQVSTPTL-OH) |  | > 10000 nM | 2600 nM | > 100000 nM |  | 
4 | CSCC[C@@H](NC(C)=O)C(=O)N[C@@H](CC(C)C)C(=O)N[C@@H](CCCNC(=N)N)C(=O)N[C@@H](Cc1c[nH]c2ccccc12)C(=O)N[C@@H](CO)C(=O)N[C@@H](CCCNC(=N)N)C(=O)N[C@@H](CCCCN)C(=O)N[C@@H](CC(C)C)C(=O)N1CCC[C@H]1C(=O)N[C@@H](CS)C(=O)N[C@H](C(=O)N[C@@H](CO)C(=O)O)C(C)C |  | > 10000 nM |  |  |  | 
5 | CSCC[C@H](NC(C)=O)C(=O)N[C@@H](CC(C)C)C(=O)N[C@@H](CCCNC(=N)N)C(=O)N[C@@H](Cc1c[nH]c2ccccc12)C(=O)N[C@@H](CO)C(=O)N[C@@H](CCCNC(=N)N)C(=O)N[C@@H](CCCCN)C(=O)N[C@@H](CC(C)C)C(=O)N1CCC[C@H]1C(=O)N[C@@H](CS)C(=O)N[C@H](C(=O)N[C@@H](CO)C(=O)O)C(C)C |  | > 10000 nM |  |  |  | 
6 | CSCC[C@H](NC(=O)[C@H](CCCCN)NC(=O)[C@H](CCCNC(=N)N)NC(=O)[C@H](CO)NC(=O)[C@H](Cc1c[nH]c2ccccc12)NC(=O)[C@H](CCCNC(=N)N)NC(=O)[C@H](CC(C)C)NC(=O)[C@H](CO)NC(C)=O)C(=O)N1CCC[C@H]1C(=O)N[C@@H](CS)C(=O)N[C@H](C(=O)N[C@@H](CO)C(=O)O)C(C)C |  | 4060 nM | 16300 nM | > 100000 nM |  | 
7 | CSCC[C@H](NC(=O)CN)C(=O)N[C@@H](CCCNC(=N)N)C(=O)N[C@@H](Cc1c[nH]c2ccccc12)C(=O)N[C@@H](CO)C(=O)N[C@@H](CCCNC(=N)N)C(=O)N[C@@H](CCCCN)C(=O)N[C@@H](CCSC)C(=O)N1CCC[C@H]1C(=O)N[C@@H](CS)C(=O)N[C@H](C(=O)N[C@@H](CO)C(=O)O)C(C)C (H-GMRWSRKMPCVS-OH) |  | 6670 nM | 8730 nM | > 100000 nM |  | 
8 | CSCC[C@H](NC(=O)[C@H](CCCCN)NC(=O)[C@H](CCCNC(=N)N)NC(=O)[C@H](CO)NC(=O)[C@H](Cc1c[nH]c2ccccc12)NC(=O)[C@H](CCCNC(=N)N)NC(=O)[C@H](CC(C)C)NC(=O)[C@H](N)Cc1ccccc1)C(=O)N1CCC[C@H]1C(=O)N[C@@H](CS)C(=O)N[C@H](C(=O)N[C@@H](CO)C(=O)O)C(C)C |  | 817 nM | 1440 nM | > 100000 nM |  | 
9 | CC[C@H](C)[C@H](N)C(=O)N[C@H](CC(C)C)C(=O)N[C@@H](CCCNC(=N)N)C(=O)N[C@@H](Cc1c[nH]c2ccccc12)C(=O)N[C@@H](CO)C(=O)N[C@@H](CCCNC(=N)N)C(=O)N[C@@H](CCCCN)C(=O)N[C@@H](CC(C)C)C(=O)N1CCC[C@H]1C(=O)N[C@@H](CS)C(=O)N[C@H](C(=O)N[C@@H](CO)C(=O)O)C(C)C |  | 436 nM | 1730 nM | > 100000 nM |  | 
10 | CSCC[C@H](NC(=O)[C@H](N)CC(C)C)C(=O)N[C@@H](CCCNC(=N)N)C(=O)N[C@@H](Cc1c[nH]c2ccccc12)C(=O)N[C@@H](CO)C(=O)N[C@@H](CCCNC(=N)N)C(=O)N[C@@H](CCCCN)C(=O)N[C@@H](CCSC)C(=O)N1CCC[C@H]1C(=O)N[C@@H](CS)C(=O)N[C@H](C(=O)N[C@@H](CO)C(=O)O)C(C)C (H-[dL]MRWSRKMPCVS-OH) | Dose-Dependent Effect |  |  |  | Non-Toxic | 
11 | CC[C@H](C)[C@H](NC(C)=O)C(=O)N[C@@H](CC(C)C)C(=O)N[C@@H](CCCNC(=N)N)C(=O)N[C@@H](Cc1c[nH]c2ccccc12)C(=O)N[C@@H](CO)C(=O)N[C@@H](CCCNC(=N)N)C(=O)N[C@@H](CCCCN)C(=O)N[C@@H](CC(C)C)C(=O)N1CCC[C@H]1C(=O)N[C@@H](CS)C(=O)N[C@H](C(=O)N[C@@H](CO)C(=O)O)C(C)C |  | 1660 nM | 2660 nM | 42100 nM |  | 
12 | CC[C@H](C)[C@H](N)C(=O)N[C@H](CC(C)C)C(=O)N[C@@H](CCCNC(=N)N)C(=O)N[C@@H](Cc1c[nH]c2ccccc12)C(=O)N[C@@H](CO)C(=O)N[C@@H](CCCNC(=N)N)C(=O)N[C@@H](CCCCN)C(=O)N[C@@H](CCSC)C(=O)N1CCC[C@H]1C(=O)N[C@@H](CS)C(=O)N[C@H](C(=O)N[C@@H](CO)C(=O)O)C(C)C |  | 934 nM | 991 nM | > 100000 nM |  | 
13 | CSCC[C@H](NC(=O)[C@@H](N)CCSC)C(=O)N[C@@H](CCCNC(=N)N)C(=O)N[C@@H](Cc1c[nH]c2ccccc12)C(=O)N[C@@H](CO)C(=O)N[C@@H](CCCNC(=N)N)C(=O)N[C@@H](CCCCN)C(=O)N[C@@H](CCSC)C(=O)N1CCC[C@H]1C(=O)N[C@@H](CS)C(=O)N[C@H](C(=O)N[C@@H](CO)C(=O)O)C(C)C (H-MMRWSRKMPCVS-OH) |  | 129 nM | 105 nM | 7300 nM |  | 
14 | CSCC[C@H](NC(=O)[C@H](CCCCN)NC(=O)[C@H](CCCNC(=N)N)NC(=O)[C@H](CO)NC(=O)[C@H](Cc1c[nH]c2ccccc12)NC(=O)[C@H](CCCNC(=N)N)NC(=O)[C@H](CC(C)C)NC(=O)[C@@H](CO)NC(C)=O)C(=O)N1CCC[C@H]1C(=O)N[C@@H](CS)C(=O)N[C@H](C(=O)N[C@@H](CO)C(=O)O)C(C)C |  | 775 nM | 8620 nM | > 100000 nM |  | 
15 | CSCC[C@H](NC(=O)[C@H](CCCCN)NC(=O)[C@H](CCCNC(=N)N)NC(=O)[C@H](CO)NC(=O)[C@H](Cc1c[nH]c2ccccc12)NC(=O)[C@H](CCCNC(=N)N)NC(=O)[C@H](CC(C)C)NC(=O)[C@H](N)CC(C)C)C(=O)N1CCC[C@H]1C(=O)N[C@@H](CS)C(=O)N[C@H](C(=O)N[C@@H](CO)C(=O)O)C(C)C (H-[dL]LRWSRKMPCVS-OH) | Dose-Dependent Effect | 153 nM | 310 nM | 3660 nM | Non-Toxic | 257 nM
16 | CSCC[C@H](NC(=O)[C@H](CCCCN)NC(=O)[C@H](CCCNC(=N)N)NC(=O)[C@H](CO)NC(=O)[C@H](Cc1c[nH]c2ccccc12)NC(=O)[C@H](CCCNC(=N)N)NC(=O)[C@@H](CC(C)C)NC(=O)[C@@H](N)CCSC)C(=O)N1CCC[C@H]1C(=O)N[C@@H](CS)C(=O)N[C@H](C(=O)N[C@@H](CO)C(=O)O)C(C)C |  |  | 824 nM |  |  | 
17 | CC[C@@H](C)[C@@H](N)C(=O)N[C@@H](CC(C)C)C(=O)N[C@@H](CCCNC(=N)N)C(=O)N[C@@H](Cc1c[nH]c2ccccc12)C(=O)N[C@@H](CO)C(=O)N[C@@H](CCCNC(=N)N)C(=O)N[C@@H](CCCCN)C(=O)N[C@@H](CC(C)C)C(=O)N1CCC[C@H]1C(N)=O (H-[dI]LRWSRKLP-NH2) | Dose-Dependent Effect | 551 nM | 453 nM | 4540 nM | Non-Toxic | 118 nM
18 | CSCC[C@H](NC(=O)[C@H](N)Cc1ccccc1)C(=O)N[C@@H](CCCNC(=N)N)C(=O)N[C@@H](Cc1c[nH]c2ccccc12)C(=O)N[C@@H](CO)C(=O)N[C@@H](CCCNC(=N)N)C(=O)N[C@@H](CCCCN)C(=O)N[C@@H](CCSC)C(=O)N1CCC[C@H]1C(=O)N[C@@H](CS)C(=O)N[C@H](C(=O)N[C@@H](CO)C(=O)O)C(C)C | Dose-Dependent Effect | 1690 nM | 1470 nM | > 100000 nM |  | 
19 | CC(C)C[C@H](NC(=O)[C@H](N)C(C)C)C(=O)N[C@@H](CCCNC(=N)N)C(=O)N[C@@H](Cc1c[nH]c2ccccc12)C(=O)N[C@@H](CO)C(=O)N[C@@H](CCCNC(=N)N)C(=O)N[C@@H](CCCCN)C(=O)N[C@@H](CC(C)C)C(=O)N1CCC[C@H]1C(=O)N[C@@H](CS)C(=O)N[C@H](C(=O)N[C@@H](CO)C(=O)O)C(C)C |  | 696 nM | 921 nM |  |  | 
20 | CC[C@@H](C)[C@@H](NC(C)=O)C(=O)N[C@@H](CC(C)C)C(=O)N[C@@H](CCCNC(=N)N)C(=O)N[C@@H](Cc1c[nH]c2ccccc12)C(=O)N[C@@H](CO)C(=O)N[C@@H](CCCNC(=N)N)C(=O)N[C@@H](CCCCN)C(=O)N[C@@H](CC(C)C)C(=O)N1CCC[C@H]1C(=O)N[C@@H](CS)C(=O)N[C@H](C(=O)N[C@@H](CO)C(=O)O)C(C)C |  | > 10000 nM | 7720 nM | 17200 nM |  | 
